Consider 4 compounds from EP0840781B1, “METHODS AND DEVICES FOR THE REMOVAL OF PSORALENS FROM BLOOD PRODUCTS” (Cerus Corporation, priority 1995, dated 1996).

Several values for one entry are separate records, joined by “and”; a condition that tells them apart may be missing. Identical values can stand only once. Like-named read-outs stand apart in the source and are kept apart here.

In one series the test system is R17. Briefly: r-17 bacteriophage assay: R17 treated with compound and UVA, remaining titer by plaque count on Hfr 3000 bacteria. The format is cell-based. Here is the method: In the r-17 assay, the bacteriophage was placed in a solution with each compound tested and was then irradiated. The ability of the phage to subsequently infect bacteria and inhibit their growth was measured. The bacteriophage was selected for its relatively accessible nucleic acid such that the culture growth inhibition would accurately reflect nucleic acid damage by the test compounds. The bacteriophage assay for nucleic acid binding to test compounds offers a safe and inexpensive procedure to identify compounds likely to display efficient pathogen inactivation. Previous experiments support that the r-17 assay accurately measures HIV-1 sensitivity to similar compounds. […] Modified Eagles Medium (DMEM) to a final phage concentration of 10^9/mL. An aliquot (0.5 mL) was transferred to a 1.5 mL snap-top polyethylene tube. […] Louis, MO). The tubes were placed in a light device as described in EXAMPLE 1 and irradiated for between 1 and 10 minutes. […] To make the dilutions. a 0.100 mL aliquot of the irradiated solution of phage and test compound was added to the first dilution tube of 0.4 mL of media then 0.020 mL of this solution was added to the second tube of 0.5 mL medium (1:25). […] After the top agar hardened, the plates were incubated at 37 °C overnight. The plaque forming units were then counted the following morning and the titer of the phage remaining after phototreatment was calculated based on the dilution factors. The following controls were run: the "phage only" in which phage was not treated with test compound and not irradiated (listed as "starting titer" in the tables below); the "UV only" in which the phage was irradiated in the absence of test compound; and the "dark" control in which the phage/test compound solution was not irradiated before it was diluted and plated. Compounds described herein were also tested at a constant concentration for varying doses of UV light. […] The compound tested was added at the desired concentration and the samples were vortexed. […] Between each 1.0 J/cm^2 intervals, 100µL was removed from each sample and placed in the first corresponding dilution tube, then five sequential dilutions were performed for each compound tested, at all 3 irradiation doses, as described above in this example. […] The contents of each tube was poured into its own LB plate and the plates were incubated overnight at 37 °C. Plaques were counted by visual inspection the following morning.

A further series concerns HIV-1. The following applies: 1 Minute Irradiation.
The subject of another series is Male Balb/c mice. On the procedure: Male Balb/c mice were then injected with 0.1 ml of a compound solution via the tail vein. At least 3 mice were injected per dose level Saline only was used as a negative control. For a positive control, cyclophosphamide (cycloPP) was administered at a dose of 30 mg/kg. In the experimental group, the injections were repeated once per day for four days. In the positive control group, the sample was administered only once, on day three. On day 5, several microliters of blood were withdrawn from each subject and smeared on a glass slide. Cells were fixed in absolute methanol and stored in a slide rack.
For analysis, cells were stained with acridine orange and visualized under a fluorescence microscope by counting: (i) the number of reticulocytes per 5000 erythrocytes; and (ii) the number of micronucleated reticulocytes per 1000 reticulocytes. Reticulocytes were distinguished by their red fluorescence due to the presence of RNA. Micronuclei were distinguished by their green fluorescence due to the presence of DNA. The percentage of reticulocytes (%PCE) was then calculated. A decrease in the frequency of erythrocytes, represented by an increase in the percentage of reticulocytes, is an indication of bone marrow toxicity. The percentage of reticulocytes with micronuclei (%PCE with MN) was also calculated. An increase in %PCE with MN is a measure of elastogenicity.
After initial results were determined, the experiment was repeated using increased dose levels, until: (i) Micronucleus formation was seen; or (ii). Bone marrow toxicity was observed; or (iii) The lethal dose was reached; or (iv) A dose of 5 g/kg was administered.

The test system of series [1] is Salmonella typhimurium tester strains TA97a, TA98, TA100, TA102, TA1537 and TA1538. To be noted: for mutagenic response (Ames, summary): two-fold or greater increase in revertants above background and dose dependent response. The text has this: The second property that is important in testing a compound for use in methods described herein is mutagenicity. The most widely used mutagen/carcinogen screening assay is the Ames test. This assay is described by D.M. Maron and B.N. Ames in Mutation Research 113:173 ( 1983) and a specific screen is described in detail in Example 17, below. The Ames test utilizes several unique strains of Salmonella typhimurium that are histidine- dependent for growth and that lack the usual DNA repair enzymes. The frequency of normal mutations that render the bacteria independent of histidine (i.e., the frequency of spontaneous revertants) is low. The test allows one to evaluate the impact of a compound on this revenant frequency.
Because some substances are not mutagenic by themselves, but are converted to a mutagen by metabolic action, the compound to be tested is mixed with the bacteria on agar plates along with the liver extract. The liver extract serves to mimic metabolic action in an animal.
The mixtures are allowed to incubate. Growth of bacteria (if any) is checked by counting colonies.
In this example the compounds described herein are tested for their dark mutagenicity using an Ames assay. The procedures used for the Salmonella mutagenicity test as described in detail by Maron and Ames were followed exactly. Maron, D.M. and B.N. Ames, Mutation Research 113: 173 ( 1983). A brief description for each procedure is given here. The tester strains TA97a, TA98, TA 100, TA102, TA1537 and TA1538 were obtained from Dr. Ames. TA97a, TA98, TA1537 and TA1538 are frameshift tester strains. TA100 and TA102 are base-substitution tester strains. Upon receipt each strain was cultured under a variety of conditions to confirm the genotypes specific to the strains.
The first tests done with the strains were to determine the range of spontaneous reversion for each of the strains. With each mutagenicity experiment the spontaneous reversion of the tester strains to histidine independence was measured and expressed as the number of spontaneous revertants per plate. This served as the background controls.
For all experiments, the pre-incubation procedure was used. In this procedure one vial of each tester strain was thawed and 20 µL of this culture was added to 6 mL of Oxoid Nutrient Broth #2. This solution was allowed to shake for 10 hours at 37°C. In the pre-incubation procedure, 0.1 mL of this overnight culture was added to each of the required number of sterile test tubes. To half of the tubes 0.5 mL of a 10% S-9 solution containing Aroclor 1254 induced rat liver extract (Molecular Toxicology Inc., Annapolis, MD), and MgCl2, KCl, glucose-6-phosphate, NADP, and sodium phosphate buffer (Sigma, St. Louis, Missouri) were added. To the other half of the tubes 0.5 mL of 0.2M sodium phospate buffer, pH 7.4, was used in place of the S-9 mixture (the - S9 samples). Finally 0.1 mL of the test solution containing either 0, 0.1, 0.5, 1, 5, 10, 50, 100, 250, or 500 µg/mL of the test compound was added. The 0.7 mL mixture was vonexed and then pre-incubated while shaking for 20 minutes at 37°C. After shaking, 2 mL of molten top agar supplemented with histidine and biotin were added to the 0.7 mL mixture and immediately poured onto a minimal glucose agar plate (volume of base agar was 20 mL). The top agar was allowed 30 minutes to solidify and then the plates were inverted and incubated for 44 hours at 37°C. After incubation the number of revertant colonies on each plate were counted.
Maron and Ames (1983) describe the conflicting views with regard to the statistical treatment of data generated from the test.

Where [2] appears, read: 16 µM, 1 Minute irradiation = 1.2 J/cm^2, Starting Titer Approx. 7.1 Logs (Table 8).
Where [3] appears, read: 32 µM, HIV Starting Titer Approximately 5 Logs (Table 10).
[4] abbreviates: 64 µM, HIV Starting Titer Approximately 5 Logs (Table 10).
Where [5] appears, read: positive control, Dose 30 mg/kg administered only once, on day three, one value per experiment, 30 mg/kg.

Protocol for HIV-1: Pathogen inactivation efficiency of several compounds described herein was evaluated by examining the ability of the compounds to inactivate cell-free virus (HIV). Inactivation of cell-free HIV was performed as follows.
As in the R17 assay, small aliquots of the compounds listed in TABLES 10 and 11, below, at the concentrations listed in the table, were added to stock HIV-1 to a total of 0.5 mL. The stock HIV (10^5 - 10^7 plaque forming units/mL) was in DMEM/15% FBS. […] Controls included HIV-I stock only, HIV-1 plus UVA only, and HIV-I plus the highest concentration of each psoralen tested, with no UVA. Post irradiation. all samples were store frozen at -70° C until assayed for infectivity by a microtiter plaque assay. Aliquots for measurement of residual HIV infectivity in the samples treated with a compound of the present invention were withdrawn and cultured.
Residual HIV infectivity was assayed using an MT-2 infectivity assay. […] The assay medium was 85% DMEM (with a high glucose concentration) containing 100 µg of streptomycin, 100 U of penicillin, 50 µg of gentamicin, and 1 µg of amphotericin B per mL, 15% FBS and 2 µg of Polybrene (Sigma Chemical Co., St. Louis, Mo.) per mL. Test and control samples from the inactivation procedure were diluted in 50% assay medium and 50% normal human pooled plasma. The samples were serially diluted directly in 96-well plates (Coming Glass Works, Coming, N.Y.). The plates were mixed on an oscillatory shaker for 30 seconds and incubated at 37°C in a 5% CO2 atmosphere for 1 to 18 hours. […] After an additional 1 hour of incubation at 37°C in 5% CO2, 0.075 mL of assay medium containing 1.6% SeaPlaque agarose (FMC Bioproducts, Rockland, Maine) and prewarmed to 38.5°C was added to each well. The plates were kept at 37°C for a few minutes until several plates had accumulated and then centrifuged in plate carriers at 600 x g for 20 minutes in a centrifuge precooled to 10°C. In the centrifuge, cell monolayers formed prior to gelling of the agarose layer. The plates were incubated for 5 days at 37°C in 5% CO2 and stained by the addition of 0.05 mL of 50 µg/mL propidium iodide (Sigma Chemical Co.) in phosphate-buffered saline (pH 7.4) to each well. After 24 to 48 hours, the red fluorescence-stained microplaques were visualized by placing the plates on an 8,000 µW/cm^2 304 nm UV light box (Fotodyne, Inc., New Berlin, Wis.). The plaques were counted at a magnification of x20 to x25 through a stereomicroscope.

With `Cc1cc(=O)oc2c(C)c3oc(CNCCCCN)c(C)c3cc12` [Compound 17, 5'-(6-amino-2-aza)hexyl-4,4',8-trimethylpsoralen], the “efficiency at inactivating R17 compared with AMT” value in the series with R17 (constant concentration, varying doses of UV light 1.0-3.0 J/cm^2 (FIGS. 11-17)) was “more efficient at inactivating R17 than was AMT”. The “HIV Log Kill” value in the series with HIV-1 (16 µM, HIV Starting Titer Approximately 5.4 Logs (Table 11)) is 1.2; in the series on HIV-1 (32 µM, HIV Starting Titer Approximately 5.4 Logs (Table 11)), 2.9; in the series on HIV-1 (64 µM, HIV Starting Titer Approximately 5.4 Logs (Table 11)) it was 3.4. Also, the “bone marrow toxicity or micronucleus formation” value in the series with Male Balb/c mice (experiment repeated using increased dose levels) is “the acutely lethal dose was reached before there were any signs of bone marrow toxicity or micronucleus formation”.
Regarding `Cc1oc2c(C)c3oc(=O)cc(C)c3cc2c1CCN` [Compound 3, 4'-(2-aminoethyl)-4,5',8-trimethylpsoralen], the “R17 Log Kill” value in the series with R17 (8 µM, 1 Minute Irradiation, Starting Titer Approx. 7.2 Logs (Table 7)) is given as greater than 6.2; in the series with R17 (8 µM, 1 Minute irradiation = 1.2 J/cm^2, Starting Titer Approx. 7.1 Logs (Table 8)), 5.6; in the series on R17 (16 µM, 1 Minute Irradiation, Starting Titer Approx. 7.2 Logs (Table 7)), greater than 6.2; in the series with R17 (setting [2]) it was greater than 6.1; in the series on R17 (32 µM, 1 Minute Irradiation, Starting Titer Approx. 7.2 Logs (Table 7)), greater than 6.2. In addition, the “R17 inactivation efficiency compared with AMT” value in the series with R17 (varying concentration (Tables 7 and 8, FIGS. 6-10)) was “significantly higher inactivation efficiency than does AMT”. Besides, the “HIV Log Kill” value with HIV-1 (setting [3]) was 2.7; in the series on HIV-1 (setting [4]), greater than 3.8. In addition, the “revertant colonies, TA100 +S9” value in series [1] (5 µg/plate) is -19; in series [1] (10 µg/plate), 8. The “revertant colonies, TA100 -S9” value in series [1] (5 µg/plate) and in series [1] (10 µg/plate) was 47 in each case. Moreover, the “revertant colonies, TA1538 +S9” value in series [1] (5 µg/plate) is given as 1; in series [1] (10 µg/plate), 9. The “revertant colonies, TA1538 -S9” value in series [1] (5 µg/plate) is 0; in series [1] (10 µg/plate) it was -6. In series [1], the “mutagenic response (Ames, summary)” value was “no mutagenicity”.
As to `Cc1oc2c(C)c3oc(=O)cc(C)c3cc2c1COCCCN` [Compound 4, 4'-(5-amino-2-oxa)pentyl-4,5',8-trimethylpsoralen], the “R17 Log Kill” value is 2.3 in the series with R17 (setting [2]); 4.3 with R17 (32 µM, 1 Minute irradiation = 1.2 J/cm^2, Starting Titer Approx. 7.1 Logs (Table 8)); greater than 6.1 in the series on R17 (64 µM, 1 Minute irradiation = 1.2 J/cm^2, Starting Titer Approx. 7.1 Logs (Table 8)). Moreover, the “HIV Log Kill” value with HIV-1 (setting [3]) was 2.2; with HIV-1 (setting [4]) it was greater than 3.6. Also, the entries for the “revertant colonies, TA100 +S9” value in series [1] (5 µg/plate) and in series [1] (10 µg/plate) were -10 and -3, respectively. The figures for the “revertant colonies, TA100 -S9” value in series [1] (5 µg/plate) and in series [1] (10 µg/plate) were -41 and 3, respectively. Further, the “revertant colonies, TA1538 +S9” value is 7 in series [1] (5 µg/plate) and -2 in series [1] (10 µg/plate). The “revertant colonies, TA1538 -S9” value in series [1] (5 µg/plate) and in series [1] (10 µg/plate) was -2 throughout. The “mutagenic response (Ames, summary)” value in series [1] is listed as “no mutagenicity”.
Regarding `O=P1(N(CCCl)CCCl)NCCCO1` (centres unmarked) [CycloPP, cyclophosphamide, reference compound], in the series with Male Balb/c mice (setting [5]), the “PCE + MN (%)” value was 1.98 ± 0.40% and 1.76 ± 0.64%; the “PCE/RBC (%)” value is 1.39 ± 0.41% and 1.65 ± 0.64% and 0.99 ±0.33%.
